Key:
[1] = system: HCC78; assay: Antiproliferative activity against human HCC78 cells after 48 hrs by MTT assay; settings: HCC78, 48 h
[2] = target: Proto-oncogene tyrosine-protein kinase ROS (Homo sapiens, UniProt P08922); assay: Inhibition of recombinant human GST-tagged ROS1 expressed in baculovirus expression system by Z'LYTE assay
[3] = system: NCI-H3122; assay: Antiproliferative activity against human NCI-H3122 cells after 48 hrs by MTT assay; settings: NCI-H3122, 48 h
[4] = target: ALK tyrosine kinase receptor (Homo sapiens, UniProt Q9UM73); assay: Inhibition of recombinant human GST-tagged ALK expressed in baculovirus expression system by Z'LYTE assay
Sequence of ALK tyrosine kinase receptor (Q9UM73 whole entry): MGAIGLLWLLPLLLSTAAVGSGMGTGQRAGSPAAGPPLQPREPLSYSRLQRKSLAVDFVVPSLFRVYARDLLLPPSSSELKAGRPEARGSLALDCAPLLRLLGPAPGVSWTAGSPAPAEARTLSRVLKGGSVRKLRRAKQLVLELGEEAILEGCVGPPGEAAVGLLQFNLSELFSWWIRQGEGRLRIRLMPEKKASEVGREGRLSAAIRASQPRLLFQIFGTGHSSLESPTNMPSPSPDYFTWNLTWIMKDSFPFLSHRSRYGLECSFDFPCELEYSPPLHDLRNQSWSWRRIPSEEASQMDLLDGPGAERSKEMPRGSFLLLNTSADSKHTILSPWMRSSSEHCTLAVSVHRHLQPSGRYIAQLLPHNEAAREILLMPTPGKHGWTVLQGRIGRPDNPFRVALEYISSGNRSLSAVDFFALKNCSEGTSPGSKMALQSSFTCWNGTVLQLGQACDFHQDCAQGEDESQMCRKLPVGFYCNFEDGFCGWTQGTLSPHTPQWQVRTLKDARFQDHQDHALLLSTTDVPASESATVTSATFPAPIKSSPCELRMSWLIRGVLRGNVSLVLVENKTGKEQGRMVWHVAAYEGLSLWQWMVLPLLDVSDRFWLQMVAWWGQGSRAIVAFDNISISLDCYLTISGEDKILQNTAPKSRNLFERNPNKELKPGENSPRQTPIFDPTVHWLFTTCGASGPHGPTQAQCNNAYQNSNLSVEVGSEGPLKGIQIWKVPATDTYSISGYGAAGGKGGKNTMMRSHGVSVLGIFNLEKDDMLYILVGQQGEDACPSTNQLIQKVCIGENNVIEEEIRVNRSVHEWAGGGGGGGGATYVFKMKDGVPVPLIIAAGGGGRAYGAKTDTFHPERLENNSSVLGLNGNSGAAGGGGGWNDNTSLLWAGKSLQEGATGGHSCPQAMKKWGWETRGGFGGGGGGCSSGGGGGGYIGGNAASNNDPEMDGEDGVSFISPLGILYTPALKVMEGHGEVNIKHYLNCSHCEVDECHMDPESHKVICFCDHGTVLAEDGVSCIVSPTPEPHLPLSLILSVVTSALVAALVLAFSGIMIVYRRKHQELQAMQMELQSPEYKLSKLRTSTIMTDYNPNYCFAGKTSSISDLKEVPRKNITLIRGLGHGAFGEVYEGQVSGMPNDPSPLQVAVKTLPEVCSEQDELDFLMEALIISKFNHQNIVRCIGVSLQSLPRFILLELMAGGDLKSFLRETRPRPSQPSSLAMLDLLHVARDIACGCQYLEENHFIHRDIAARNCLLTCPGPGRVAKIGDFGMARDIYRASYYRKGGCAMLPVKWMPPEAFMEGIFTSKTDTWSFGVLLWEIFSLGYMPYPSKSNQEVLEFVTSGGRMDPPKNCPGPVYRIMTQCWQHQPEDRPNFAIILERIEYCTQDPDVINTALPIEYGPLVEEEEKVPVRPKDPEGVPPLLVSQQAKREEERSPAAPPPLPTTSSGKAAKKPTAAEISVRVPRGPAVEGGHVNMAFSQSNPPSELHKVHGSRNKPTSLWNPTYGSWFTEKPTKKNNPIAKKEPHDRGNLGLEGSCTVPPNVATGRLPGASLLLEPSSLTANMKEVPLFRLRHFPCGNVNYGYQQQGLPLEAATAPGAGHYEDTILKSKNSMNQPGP

[5] = target: Mast/stem cell growth factor receptor Kit (Homo sapiens) (UniProt P10721); assay: Inhibition of KIT (unknown origin) at 1 uM by Z'LYTE assay relative to control
[6] = target: CDK2/Cyclin A2 (Homo sapiens) (UniProt P24941+P20248); assay: Inhibition of recombinant human full length His-tagged CDK2/cyclin A expressed in baculovirus expression system at 1 uM by Z'LYTE assay relative to control
[7] = target: Leukocyte tyrosine kinase receptor (Homo sapiens) (UniProt P29376); assay: Inhibition of recombinant human GST-tagged LTK expressed in baculovirus expression system at 1 uM by Z'LYTE assay relative to control
[8] = target: Epidermal growth factor receptor (Homo sapiens) (UniProt P00533); assay: Inhibition of recombinant human GST-tagged EGFR expressed in baculovirus expression system at 1 uM by Z'LYTE assay relative to control
[9] = target: Tyrosine-protein kinase ABL1 (Homo sapiens) (UniProt P00519); assay: Inhibition of recombinant human His-tagged ABL1 expressed in baculovirus expression system at 1 uM by Z'LYTE assay relative to control
Sequence of Tyrosine-protein kinase ABL1 (Homo sapiens) (P00519 whole entry): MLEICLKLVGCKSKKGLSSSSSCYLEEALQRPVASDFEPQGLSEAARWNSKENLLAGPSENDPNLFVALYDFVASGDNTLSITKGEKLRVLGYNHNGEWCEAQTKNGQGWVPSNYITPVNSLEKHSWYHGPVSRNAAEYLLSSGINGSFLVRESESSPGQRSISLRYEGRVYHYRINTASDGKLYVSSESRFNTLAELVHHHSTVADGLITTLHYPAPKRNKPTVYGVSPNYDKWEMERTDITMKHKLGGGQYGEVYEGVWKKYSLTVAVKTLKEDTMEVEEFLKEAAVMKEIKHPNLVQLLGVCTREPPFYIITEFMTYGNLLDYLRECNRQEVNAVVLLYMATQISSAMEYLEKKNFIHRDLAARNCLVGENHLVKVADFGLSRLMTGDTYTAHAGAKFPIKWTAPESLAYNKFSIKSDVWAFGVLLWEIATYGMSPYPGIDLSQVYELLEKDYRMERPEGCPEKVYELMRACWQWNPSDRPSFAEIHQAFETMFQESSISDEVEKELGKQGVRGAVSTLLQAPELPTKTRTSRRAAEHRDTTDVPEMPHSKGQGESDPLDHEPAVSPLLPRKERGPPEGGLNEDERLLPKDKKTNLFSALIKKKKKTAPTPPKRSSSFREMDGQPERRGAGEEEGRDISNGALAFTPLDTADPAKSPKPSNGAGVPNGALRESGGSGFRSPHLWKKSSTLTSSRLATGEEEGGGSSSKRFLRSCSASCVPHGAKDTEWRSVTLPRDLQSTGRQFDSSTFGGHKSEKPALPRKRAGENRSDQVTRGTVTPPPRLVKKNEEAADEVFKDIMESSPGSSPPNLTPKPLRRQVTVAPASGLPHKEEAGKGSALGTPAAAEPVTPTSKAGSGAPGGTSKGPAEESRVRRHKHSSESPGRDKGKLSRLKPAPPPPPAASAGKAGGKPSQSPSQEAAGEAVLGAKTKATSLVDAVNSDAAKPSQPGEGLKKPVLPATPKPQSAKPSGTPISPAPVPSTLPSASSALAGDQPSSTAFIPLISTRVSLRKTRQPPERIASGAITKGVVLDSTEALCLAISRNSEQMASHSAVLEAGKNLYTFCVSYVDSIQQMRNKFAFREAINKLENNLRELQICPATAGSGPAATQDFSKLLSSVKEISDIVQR

[10] = target: Serine/threonine-protein kinase B-raf (Homo sapiens) (UniProt P15056); assay: Inhibition of recombinant human full length GST-tagged BRAF expressed in baculovirus expression system at 1 uM by Z'LYTE assay relative to control
[11] = target: Mitogen-activated protein kinase 3 (Homo sapiens) (UniProt P27361); assay: Inhibition of recombinant human GST-tagged full length MAPK3 expressed in Escherichia coli at 1 uM by Z'LYTE assay relative to control
[12] = target: Tyrosine-protein kinase JAK2 (Homo sapiens) (UniProt O60674); assay: Inhibition of recombinant human GST-tagged JAK2 expressed in baculovirus expression system at 1 uM by Z'LYTE assay relative to control
[13] = target: Hepatocyte growth factor receptor (Homo sapiens) (UniProt P08581); assay: Inhibition of recombinant human His-tagged MET expressed in mammalian expression system at 1 uM by Z'LYTE assay relative to control
[14] = target: Fibroblast growth factor receptor 1 (Homo sapiens) (UniProt P11362); assay: Inhibition of recombinant human His-tagged FGFR1 expressed in baculovirus expression system at 1 uM by Z'LYTE assay relative to control
[15] = target: Insulin-like growth factor 1 receptor (Homo sapiens) (UniProt P08069); assay: Inhibition of recombinant human His-tagged IGF1R expressed in baculovirus expression system at 1 uM by Z'LYTE assay relative to control
[16] = target: Platelet-derived growth factor receptor alpha (Homo sapiens) (UniProt P16234); assay: Inhibition of recombinant human GST-tagged PDGFRalpha expressed in baculovirus expression system at 1 uM by Z'LYTE assay relative to control

Sequence of Proto-oncogene tyrosine-protein kinase ROS (P08922 whole entry): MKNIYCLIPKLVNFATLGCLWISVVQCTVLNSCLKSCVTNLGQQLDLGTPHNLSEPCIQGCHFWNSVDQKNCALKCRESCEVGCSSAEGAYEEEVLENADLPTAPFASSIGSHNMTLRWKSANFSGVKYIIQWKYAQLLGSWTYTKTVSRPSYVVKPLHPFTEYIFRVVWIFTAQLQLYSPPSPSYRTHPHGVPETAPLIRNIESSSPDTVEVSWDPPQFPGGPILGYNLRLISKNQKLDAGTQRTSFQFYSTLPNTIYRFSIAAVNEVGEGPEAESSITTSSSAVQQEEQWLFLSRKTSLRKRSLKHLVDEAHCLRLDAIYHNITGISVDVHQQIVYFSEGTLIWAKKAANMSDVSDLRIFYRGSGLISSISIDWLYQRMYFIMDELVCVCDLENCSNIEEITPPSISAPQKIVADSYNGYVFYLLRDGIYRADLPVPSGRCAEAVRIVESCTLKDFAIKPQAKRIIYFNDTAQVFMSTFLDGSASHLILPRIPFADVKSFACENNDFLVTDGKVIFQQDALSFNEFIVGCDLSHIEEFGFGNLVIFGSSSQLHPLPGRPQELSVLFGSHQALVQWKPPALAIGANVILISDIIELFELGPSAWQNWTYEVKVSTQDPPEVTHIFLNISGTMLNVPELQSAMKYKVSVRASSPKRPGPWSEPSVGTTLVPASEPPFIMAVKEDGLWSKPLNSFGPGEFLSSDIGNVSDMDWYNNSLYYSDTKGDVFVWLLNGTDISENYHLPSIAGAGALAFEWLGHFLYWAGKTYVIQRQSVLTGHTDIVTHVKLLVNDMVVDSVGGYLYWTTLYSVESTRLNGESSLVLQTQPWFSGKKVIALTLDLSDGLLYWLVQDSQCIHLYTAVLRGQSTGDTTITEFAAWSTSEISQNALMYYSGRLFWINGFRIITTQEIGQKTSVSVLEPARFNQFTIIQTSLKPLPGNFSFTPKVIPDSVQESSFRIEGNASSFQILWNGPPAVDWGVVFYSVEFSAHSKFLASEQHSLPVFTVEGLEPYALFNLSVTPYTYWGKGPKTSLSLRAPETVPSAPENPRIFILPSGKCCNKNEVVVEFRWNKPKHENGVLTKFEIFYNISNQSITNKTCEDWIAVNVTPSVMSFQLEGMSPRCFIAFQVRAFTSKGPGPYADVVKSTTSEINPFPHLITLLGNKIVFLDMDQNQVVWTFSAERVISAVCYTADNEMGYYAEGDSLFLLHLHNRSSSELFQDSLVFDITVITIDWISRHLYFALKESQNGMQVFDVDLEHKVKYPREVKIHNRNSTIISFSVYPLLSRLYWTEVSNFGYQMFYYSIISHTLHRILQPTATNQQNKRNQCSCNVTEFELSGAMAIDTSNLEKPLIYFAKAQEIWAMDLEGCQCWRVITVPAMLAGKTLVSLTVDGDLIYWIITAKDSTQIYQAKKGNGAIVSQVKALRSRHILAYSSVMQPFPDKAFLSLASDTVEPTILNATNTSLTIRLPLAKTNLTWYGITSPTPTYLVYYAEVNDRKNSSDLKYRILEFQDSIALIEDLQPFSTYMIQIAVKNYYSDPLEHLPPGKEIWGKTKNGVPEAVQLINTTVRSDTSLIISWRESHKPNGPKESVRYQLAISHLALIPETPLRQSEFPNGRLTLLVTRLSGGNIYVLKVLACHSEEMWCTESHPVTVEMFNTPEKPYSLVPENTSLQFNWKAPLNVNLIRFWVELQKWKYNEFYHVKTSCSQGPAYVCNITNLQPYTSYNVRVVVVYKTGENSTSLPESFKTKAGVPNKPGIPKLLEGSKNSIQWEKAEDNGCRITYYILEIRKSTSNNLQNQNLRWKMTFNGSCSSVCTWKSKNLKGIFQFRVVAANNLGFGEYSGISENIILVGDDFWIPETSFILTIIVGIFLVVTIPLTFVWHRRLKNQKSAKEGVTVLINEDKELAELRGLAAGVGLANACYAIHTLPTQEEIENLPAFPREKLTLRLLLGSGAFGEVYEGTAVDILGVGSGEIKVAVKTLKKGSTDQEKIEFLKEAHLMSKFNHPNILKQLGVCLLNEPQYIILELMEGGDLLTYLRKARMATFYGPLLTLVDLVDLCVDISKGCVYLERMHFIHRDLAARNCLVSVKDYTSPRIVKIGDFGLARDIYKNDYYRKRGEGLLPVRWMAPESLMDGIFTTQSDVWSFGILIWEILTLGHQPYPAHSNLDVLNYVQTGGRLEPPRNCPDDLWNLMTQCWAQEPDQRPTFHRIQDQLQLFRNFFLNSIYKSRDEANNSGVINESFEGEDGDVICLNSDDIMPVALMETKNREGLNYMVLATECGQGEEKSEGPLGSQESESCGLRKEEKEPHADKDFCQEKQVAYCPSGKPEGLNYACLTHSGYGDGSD

## CC(Oc1cccnc1Nc1cnn(C)c1)c1cccc(C(=O)NCc2ccc(OC(F)(F)F)cc2)c1 (stereo unspecified)
[1]
  IC50: 73.9 µM
[2]
  IC50: > 10 µM
[3]
  IC50: 8.3 µM

## Cc1cnc(Nc2ncccc2OC(C)c2cccc(C(=O)NCc3ccc(F)c(Cl)c3)c2)s1 (stereo unspecified)
[1]
  IC50: 34.7 µM
[2]
  IC50: 9.6 µM
[3]
  IC50: 8.2 µM

## Cc1ccc(CNC(=O)c2cccc(C(C)Oc3cccnc3Nc3cnn(CC(C)(C)O)c3)c2)cc1 (stereo unspecified)
[1]
  IC50: 20.5 µM
[2]
  IC50: 9.4 µM
[4]
  IC50: > 10 µM
[3]
  IC50: 9.1 µM

## Cc1ccc(CNC(=O)c2cccc(C(C)Oc3ccnc(Nc4cnn(C5CCN(C)CC5)c4)c3)c2)cc1 (stereo unspecified)
[1]
  IC50: 8.1 µM
[5]
  inhibition: 2%
[6]
  inhibition: 1%
[7]
  inhibition: 9%
[8]
  inhibition: 1%
[9]
  inhibition: 9%
[10]
  inhibition: 15%
[11]
  inhibition: 8%
[12]
  inhibition: 12%
[2]
  IC50: 0.44 µM
[13]
  inhibition: 3%
[4]
  IC50: 3.1 µM
[3]
  IC50: 8.9 µM
[14]
  inhibition: 11%
[15]
  inhibition: 7%
[16]
  inhibition: 6%

## COc1ccc(CNC(=O)c2cccc(C(C)Oc3ccnc(Nc4cnn(C5CCN(C)CC5)c4)c3)c2)cc1OC (stereo unspecified)
[1]
  IC50: 9 µM
[2]
  IC50: 0.57 µM
[3]
  IC50: 14.8 µM

## CC(Oc1ccnc(Nc2cnn(C)c2)c1)c1cccc(C(=O)NCc2cc(C(F)(F)F)cc(C(F)(F)F)c2)c1 (stereo unspecified)
[1]
  IC50: 9.3 µM
[2]
  IC50: 7.4 µM
[4]
  IC50: > 10 µM
[3]
  IC50: 24.7 µM

## Cc1ccc(CNC(=O)c2cccc(C(C)Oc3ccnc(Nc4cnn(CC(C)(C)O)c4)c3)c2)cc1 (stereo unspecified)
[1]
  IC50: 49.7 µM
[2]
  IC50: 2.4 µM
[4]
  IC50: > 10 µM
[3]
  IC50: > 100 µM

## CC(Oc1ccnc(Nc2cnn(C)c2)c1)c1cccc(C(=O)NCc2cc(F)cc(F)c2)c1 (stereo unspecified)
[1]
  IC50: 13.2 µM
[2]
  IC50: 2.4 µM
[3]
  IC50: 7.6 µM

## Cc1ccc(CNC(=O)c2cccc(C(C)Oc3cccnc3Nc3nncs3)c2)cc1 (stereo unspecified)
[1]
  IC50: 17.6 µM
[2]
  IC50: > 10 µM
[3]
  IC50: 20.8 µM

## C[C@@H](Oc1cc(-c2cnn(C3CCNCC3)c2)cnc1N)c1c(Cl)ccc(F)c1Cl [CRIZOTINIB]
[1]
  IC50: 2 µM
[3]
  IC50: 0.8 µM

## CC(Oc1cccnc1Nc1cnn(C)c1)c1cccc(C(=O)NCc2ccccc2S(=O)(=O)C(C)C)c1 (stereo unspecified)
[1]
  IC50: 63.1 µM
[2]
  IC50: 8.7 µM
[4]
  IC50: > 10 µM
[3]
  IC50: > 100 µM

## Cc1ccc(CNC(=O)c2cccc(C(C)Oc3ccnc(NN4CCN(C)CC4)c3)c2)cc1 (stereo unspecified)
[1]
  IC50: 26.2 µM
[2]
  IC50: > 10 µM
[3]
  IC50: 8.1 µM

## COc1cc(CNC(=O)c2cccc(C(C)Oc3ccnc(Nc4cnn(C)c4)c3)c2)cc(OC)c1OC (stereo unspecified)
[1]
  IC50: 73.9 µM
[2]
  IC50: 0.41 µM
[3]
  IC50: 29 µM

## Cc1ccc(CNC(=O)c2cccc(C(C)Oc3ccnc(Nc4cnn(C)c4)c3)c2)cc1 (stereo unspecified)
[1]
  IC50: 8.9 µM
[2]
  IC50: 1.8 µM
[3]
  IC50: 7.7 µM

## CC(Oc1cccnc1Nc1cnn(C)c1)c1cccc(C(=O)NCc2ccc(F)cc2)c1 (stereo unspecified)
[1]
  IC50: 68.5 µM
[2]
  IC50: > 10 µM
[3]
  IC50: 43.8 µM

## COc1ccc(CNC(=O)c2cccc(C(C)Oc3ccnc(Nc4cnn(C)c4)c3)c2)cc1OC (stereo unspecified)
[1]
  IC50: 76.6 µM
[2]
  IC50: 0.64 µM
[3]
  IC50: 38.5 µM

## CC(Oc1ccnc(Nc2cnn(CC(C)(C)O)c2)c1)c1cccc(C(=O)NCc2ccc(Cl)c(C(F)(F)F)c2)c1 (stereo unspecified)
[1]
  IC50: > 100 µM
[2]
  IC50: 8.4 µM
[3]
  IC50: 38.4 µM

## COc1ccc(CNC(=O)c2cccc(C(C)Oc3ccnc(Nc4ncccn4)c3)c2)cc1OC (stereo unspecified)
[1]
  IC50: > 100 µM
[2]
  IC50: 0.44 µM
[3]
  IC50: > 100 µM

## COc1cc(Nc2cc(OC(C)c3cccc(C(=O)NCc4ccc(C)cc4)c3)ccn2)cc(OC)c1OC (stereo unspecified)
[1]
  IC50: 15.7 µM
[2]
  IC50: 2.4 µM
[3]
  IC50: 7.8 µM

## COc1cccc(CNC(=O)c2cccc(C(C)Oc3cccnc3Nc3cnn(C)c3)c2)c1 (stereo unspecified)
[1]
  IC50: 78.6 µM
[2]
  IC50: > 10 µM
[3]
  IC50: 49.4 µM

## CC(Oc1ccnc(Nc2cnn(C3CCN(C)CC3)c2)c1)c1cccc(C(=O)NCc2ccc(Cl)c(C(F)(F)F)c2)c1 (stereo unspecified)
[1]
  IC50: 7.3 µM
[2]
  IC50: 2.3 µM
[3]
  IC50: 8 µM

## Cc1ccc(CNC(=O)c2cccc(C(C)Oc3cccnc3Nc3cnn(CC#N)c3)c2)cc1 (stereo unspecified)
[1]
  IC50: 57.4 µM
[2]
  IC50: 8.7 µM
[4]
  IC50: > 10 µM
[3]
  IC50: 38.4 µM

## Cc1ccc(CNC(=O)c2cccc(C(C)Oc3ccnc(Nc4nc5ccccc5[nH]4)c3)c2)cc1 (stereo unspecified)
[1]
  IC50: > 100 µM
[2]
  IC50: > 10 µM
[4]
  IC50: > 10 µM
[3]
  IC50: 9.4 µM

## COc1cccc(CNC(=O)c2cccc(C(C)Oc3ccnc(Nc4cnn(C)c4)c3)c2)c1 (stereo unspecified)
[1]
  IC50: 64.4 µM
[2]
  IC50: 1.8 µM
[3]
  IC50: > 100 µM

## Cc1ccc(CNC(=O)c2cccc(C(C)Oc3cccnc3Nc3nccs3)c2)cc1 (stereo unspecified)
[1]
  IC50: 27.1 µM
[2]
  IC50: > 10 µM
[3]
  IC50: 15.3 µM

## Cc1ccc(CNC(=O)c2cccc(C(C)Oc3ccnc(Nc4cn(C)nc4C)c3)c2)cc1 (stereo unspecified)
[1]
  IC50: 17.5 µM
[2]
  IC50: 1.4 µM
[3]
  IC50: 13.4 µM

## COc1ccc(CNC(=O)c2cccc(C(C)Oc3ccnc(Nc4cnn(C5CCNCC5)c4)c3)c2)cc1OC (stereo unspecified)
[1]
  IC50: 65.3 µM
[5]
  inhibition: 3%
[6]
  inhibition: 2%
[7]
  inhibition: 15%
[8]
  inhibition: 0%
[9]
  inhibition: 11%
[10]
  inhibition: 13%
[11]
  inhibition: 7%
[12]
  inhibition: 10%
[2]
  IC50: 0.37 µM
[13]
  inhibition: 5%
[4]
  IC50: 4.5 µM
[3]
  IC50: 47.2 µM
[14]
  inhibition: 16%
[15]
  inhibition: 9%
[16]
  inhibition: 1%

## Cc1ccc(CNC(=O)c2cccc(C(C)Oc3ccnc(NN4CCOCC4)c3)c2)cc1 (stereo unspecified)
[1]
  IC50: 68.3 µM
[2]
  IC50: > 10 µM
[3]
  IC50: > 100 µM

## Cc1ccc(CNC(=O)c2cccc(C(C)Oc3cccnc3Nn3cnnc3)c2)cc1 (stereo unspecified)
[1]
  IC50: 9.4 µM
[2]
  IC50: > 10 µM
[3]
  IC50: 23.7 µM

## CC(Oc1cccnc1Nc1cnn(C)c1)c1cccc(C(=O)NCc2ccc(F)c(Cl)c2)c1 (stereo unspecified)
[1]
  IC50: 7.8 µM
[2]
  IC50: > 10 µM
[3]
  IC50: 35.7 µM

## Cc1ccc(CNC(=O)c2cccc(C(C)Oc3cccnc3Nc3ncc(C)s3)c2)cc1 (stereo unspecified)
[1]
  IC50: 14.8 µM
[2]
  IC50: 9.4 µM
[4]
  IC50: > 10 µM
[3]
  IC50: 8.5 µM

## CC(Oc1ccnc(NN2CCN(C)CC2)c1)c1cccc(C(=O)NCc2ccc(Cl)c(C(F)(F)F)c2)c1 (stereo unspecified)
[1]
  IC50: 23.5 µM
[2]
  IC50: 9.1 µM
[3]
  IC50: 21.7 µM

## CC(Oc1ccnc(Nc2cnn(C)c2)c1)c1cccc(C(=O)NCc2ccc(C#N)cc2)c1 (stereo unspecified)
[1]
  IC50: 8.7 µM
[2]
  IC50: 1.5 µM
[3]
  IC50: 35.1 µM

## Cc1ccc(CNC(=O)c2cccc(C(C)Oc3cccnc3Nc3ncccn3)c2)cc1 (stereo unspecified)
[1]
  IC50: > 100 µM
[2]
  IC50: 6.2 µM
[4]
  IC50: > 10 µM
[3]
  IC50: > 100 µM

## Cc1ccc(CNC(=O)c2cccc(C(C)Oc3ccnc(NN4CCCCC4)c3)c2)cc1 (stereo unspecified)
[1]
  IC50: 24.5 µM
[2]
  IC50: > 10 µM
[3]
  IC50: 37.4 µM

## CC(Oc1cccnc1Nc1cnn(C)c1)c1cccc(C(=O)NCc2ccc(Cl)c(C(F)(F)F)c2)c1 (stereo unspecified)
[1]
  IC50: 48.6 µM
[2]
  IC50: 6.3 µM
[3]
  IC50: 50.7 µM
